The source of these data is ChEMBL document CHEMBL1150275, “Pharmacological and pharmacokinetic characterization of 2-piperazine-alpha-isopropyl benzylamine derivatives as melanocortin-4 receptor antagonists” (Bioorg Med Chem, 2008).

One data set in a line: physchem. The conditions noted are these: buffer, pH 7.4.
The subject of the next data set is Caco-2. Nature of the data set: Apparent permeability across human Caco-2 cells. In kind it is ADME, cell-based. Background: Passage across Caco-2 layers is used to estimate intestinal permeability.
Data set [1] can be described thus: AUC in mouse at 10 mg/kg, po. The data set is classed as ADME, organism-based. Details: dose 10 mg/kg, route oral. The conditions noted are these: plasma.
Data set [2] can be described thus: Cmax in mouse at 5 mg/kg, iv and 10 mg/kg, po. The conditions noted are these: in vivo. In kind it is ADME, organism-based.
Data set [3] in a line: Drug level in mouse brain at 5 mg/kg, iv after 4 hrs. Set-up: dose 5 mg/kg, route intravenous. The conditions noted are these: read-out: Drug uptake. In kind it is ADME, organism-based.
Data set [4] can be described thus: Volume of distribution in mouse at 5 mg/kg, iv and 10 mg/kg, po. The data set is classed as ADME, organism-based. The conditions noted are these: in vivo.
The nature of data set [5]: Oral bioavailability in mouse at 10 mg/kg. The data set is classed as ADME, organism-based. The conditions noted are these: in vivo.
Data set [6] can be described thus: Tmax in mouse at 5 mg/kg, iv and 10 mg/kg, po. The conditions noted are these: in vivo. In kind it is ADME, organism-based.
Data set [7] can be described thus: Ratio of drug level in brain to plasma in mouse at 5 mg/kg, iv after 1 hr. Set-up: dose 5 mg/kg, route intravenous. The data set is classed as ADME, organism-based.
Data set [8] is described as follows: Drug level in mouse brain at 5 mg/kg, iv after 1 hr. Details: dose 5 mg/kg, route intravenous. In kind it is ADME, organism-based. The conditions noted are these: read-out: Drug uptake.
Data set [9] in a line: Ratio of drug level in brain to plasma in mouse at 5 mg/kg, iv after 4 hrs. The data set is classed as ADME, organism-based. Details: dose 5 mg/kg, route intravenous.

Turning to `Cc1ccc(N2CCN(C(=O)[C@H](C)Cc3ccc(Cl)cc3)CC2)c([C@@H](NC(=O)CCN)C(C)C)c1`, the logD (as a rule, lipophilicity at a set pH, counting ionised and neutral species) in the data set “physchem” was found to be 2.4. Also, in the data set with Caco-2, the Papp (usually a coefficient for how fast a substance crosses the barrier) was determined as 3 ×10⁻⁶ cm/s.

As to `CNCCN[C@H](c1cc(C)ccc1N1CCN(C(=O)[C@H](C)Cc2ccc(Cl)cc2F)CC1)C(C)C`, the log distribution coefficient (logD) in the data set “physchem” worked out at 2.5. Besides, the apparent permeability coefficient (Papp) in the data set with Caco-2 worked out at 3 ×10⁻⁶ cm/s.

With `CNCC(=O)N[C@H](c1cc(C)ccc1N1CCN(C(=O)[C@H](C)Cc2ccc(Cl)cc2F)CC1)C(C)C`, the exposure (AUC) (in general, concentration integrated over time) in [1] was determined as 2290 ng·h/mL. In addition, the highest concentration (Cmax) (as a rule, the peak of the concentration-time curve) in [2] was 632 ng/mL. In data set [3], the concentration at 4 h is 42 ng/g. Further, the Vd in [4] was 3 L/kg. For the same compound, the bioavailability – broadly, dose-corrected exposure relative to a reference, in per cent – in data set [5] was determined as 30%. Further, in “physchem”, the logD was 4. The Papp with Caco-2 was 8 ×10⁻⁶ cm/s. The Tmax (commonly the time at which the peak concentration occurs) in data set [6] came out at 120 min. Besides, the partition ratio (Kp) (in general, tissue or fluid exposure divided by exposure in the circulation) at 1 h in [7] is 0.1. Moreover, the concentration at 1 h in data set [8] was 59 ng/g. In addition, in data set [9], the Kp at 4 h was 0.2.

In the case of `Cc1ccc(N2CCN(C(=O)[C@H](C)Cc3ccc(Cl)cc3C)CC2)c([C@@H](NC(=O)CCN(C)C)C(C)C)c1`, the logD in the data set “physchem” turned out to be 4. In the data set with Caco-2, the Papp was determined as 16 ×10⁻⁶ cm/s.

As to `CNCCC(=O)N[C@H](c1cc(C)ccc1N1CCN(C(=O)[C@H](C)Cc2ccc(Cl)cc2)CC1)C(C)C`, in “physchem”, the logD was 2.7. In the data set with Caco-2, the Papp came to 12 ×10⁻⁶ cm/s.

In the case of `CNCC(=O)N[C@H](c1cc(Cl)ccc1N1CCN(C(=O)[C@H](C)Cc2ccc(Cl)cc2OC)CC1)C(C)C`, the area under the curve (AUC) in data set [1] is 208 ng·h/mL. Moreover, in [2], the highest concentration (Cmax) turned out to be 55 ng/mL. Besides, the concentration at 4 h in data set [3] was determined as 102 ng/g. In data set [4], this compound displayed a Vd of 11 L/kg. In addition, in data set [5], the bioavailability is 8%. The pH-dependent lipophilicity (logD) in “physchem” is 3.5. Moreover, the time of peak concentration (Tmax) in [6] worked out at 30 min. Also, in data set [7], the concentration ratio (Kp) at 1 h was found to be 1.3. Further, the concentration at 1 h in [8] worked out at 334 ng/g. Moreover, the concentration ratio (Kp) at 4 h in data set [9] is 1.3.

On to `COc1cc(Cl)ccc1C[C@@H](C)C(=O)N1CCN(c2ccc(Cl)cc2[C@@H](NC(=O)[C@@H](C)N)C(C)C)CC1`, for which, in [1], the AUC is 397 ng·h/mL. Besides, the concentration in data set [2] peaked (Cmax) at 143 ng/mL. Besides, the concentration at 4 h in data set [3] stood at 59 ng/g. In [4], this compound came in with a Vd of 16 L/kg. This compound registered a bioavailability in data set [5] of 16%. Also, the log distribution coefficient (logD) in the data set “physchem” was found to be 4.5. The apparent permeability (Papp) in the data set with Caco-2 is listed as 3 ×10⁻⁶ cm/s. Moreover, the time of peak concentration (Tmax) in [6] was 15 min. The Kp at 1 h in data set [7] was determined as 0.4. The concentration at 1 h in data set [8] was found to be 95 ng/g. In addition, the Kp at 4 h in data set [9] stood at 1.

`CC(C)[C@H](NC(=O)CCN(C)C)c1cc(Cl)ccc1N1CCN(C(=O)[C@H](C)Cc2ccc(Cl)cc2)CC1` displayed an area under the curve (AUC) in [1] of 600 ng·h/mL. The compound further had a Cmax in [2] of 109 ng/mL. Moreover, in data set [3], the concentration at 4 h turned out to be 176 ng/g. Further, the Vd in data set [4] was 11 L/kg. Further, the bioavailability in data set [5] amounted to 19%. Further, in “physchem”, the logD is 4. Also, the apparent permeability coefficient (Papp) with Caco-2 amounted to 9 ×10⁻⁶ cm/s. Also, the time of peak concentration (Tmax) in data set [6] amounted to 60 min. For the same compound, in data set [7], the partition ratio (Kp) at 1 h came to 1.9. Further, the concentration at 1 h in data set [8] stood at 580 ng/g. The concentration ratio (Kp) at 4 h in [9] worked out at 2.3.

For `CNCC(=O)N[C@H](c1cccc(F)c1N1CCN(C(=O)[C@H](C)Cc2ccc(Cl)cc2)CC1)C(C)C`, in [1], the area under the curve (AUC) is 813 ng·h/mL. For the same compound, in data set [2], the Cmax stood at 165 ng/mL. Besides, the concentration at 4 h in [3] came to 126 ng/g. The compound also showed a Vd in data set [4] of 19 L/kg. Besides, in [5], the bioavailability came to 21%. In “physchem”, this compound gave a log distribution coefficient (logD) of 2.4. In addition, in the data set with Caco-2, the Papp stood at 1 ×10⁻⁶ cm/s. Besides, the Tmax in data set [6] turned out to be 30 min. In data set [7], the Kp at 1 h worked out at 0.6. Also, the concentration at 1 h in data set [8] was 231 ng/g. In addition, in [9], the partition ratio (Kp) at 4 h was 1.1.

In [1], `CNCC(=O)N[C@H](c1cccc(F)c1N1CCN(C(=O)[C@H](C)Cc2ccc(Cl)cc2OC)CC1)C(C)C` registered an area under the curve (AUC) of 374 ng·h/mL. The compound further returned a Cmax in data set [2] of 114 ng/mL. Besides, the concentration at 4 h in [3] is 107 ng/g. In data set [4], the Vd came out at 29 L/kg. This compound also showed a bioavailability in data set [5] of 12%. In the data set “physchem”, this compound registered a logD of 3.1. Moreover, in the data set on Caco-2, the Papp stood at 2 ×10⁻⁶ cm/s. In data set [6], the time to peak (Tmax) came out at 30 min. The concentration ratio (Kp) at 1 h in data set [7] came out at 0.5. The partition ratio (Kp) at 4 h in [9] came out at 1.7.

In turn, `CNCCN[C@H](c1cccc(F)c1N1CCN(C(=O)[C@H](C)Cc2ccc(Cl)cc2)CC1)C(C)C` showed an area under the curve (AUC) in data set [1] of 1630 ng·h/mL. The same compound yielded a Cmax in data set [2] of 166 ng/mL. Besides, the concentration at 4 h in [3] came to 62 ng/g. The same compound gave a Vd in data set [4] of 52 L/kg. In addition, the bioavailability in [5] is 47%. In addition, in the data set “physchem”, the logD was 2.6. Besides, in the data set with Caco-2, the Papp is 0.4 ×10⁻⁶ cm/s. The time of peak concentration (Tmax) in [6] worked out at 30 min. In addition, the Kp at 1 h in [7] was determined as 0.4. Also, the concentration at 1 h in [8] amounted to 53 ng/g. In addition, in data set [9], the Kp at 4 h was determined as 1.2.

In data set [1], `COc1cc(Cl)ccc1C[C@@H](C)C(=O)N1CCN(c2ccc(Cl)cc2[C@@H](NC(=O)C2CNC2)C(C)C)CC1` showed an AUC of 422 ng·h/mL. The compound further yielded a maximum concentration (Cmax) in [2] of 151 ng/mL. Besides, the concentration at 4 h in data set [3] was determined as 39 ng/g. The compound also showed a Vd in data set [4] of 8.2 L/kg. The same compound had a bioavailability in data set [5] of 5.8%. Further, the logD in the data set “physchem” amounted to 2.3. Moreover, the apparent permeability coefficient (Papp) with Caco-2 was 0.3 ×10⁻⁶ cm/s. In [6], the time of peak concentration (Tmax) was found to be 120 min. Moreover, the partition ratio (Kp) at 1 h in data set [7] is 0.1. The concentration at 1 h in [8] stood at 61 ng/g. Moreover, the partition ratio (Kp) at 4 h in [9] was determined as 0.4.

As to `CC(C)[C@H](NC(=O)C1CN(C)C1)c1cc(Cl)ccc1N1CCN(C(=O)[C@H](C)Cc2ccc(Cl)cc2)CC1`, the AUC in data set [1] came out at 9160 ng·h/mL. The peak concentration (Cmax) in data set [2] came to 762 ng/mL. Besides, in data set [3], the concentration at 4 h was found to be 77 ng/g. This compound came in with a Vd in data set [4] of 3 L/kg. This compound yielded a bioavailability in data set [5] of 58%. Besides, the pH-dependent lipophilicity (logD) in the data set “physchem” worked out at 3. For the same compound, the apparent permeability coefficient (Papp) in the data set on Caco-2 is recorded as 2 ×10⁻⁶ cm/s. The Tmax in [6] was 360 min. In [7], the Kp at 1 h worked out at 0.1. Besides, in [8], the concentration at 1 h is 79 ng/g. Further, the Kp at 4 h in data set [9] stood at 0.1.

With `COc1cc(Cl)ccc1C[C@@H](C)C(=O)N1CCN(c2c(F)cccc2[C@@H](NC(=O)C2CNC2)C(C)C)CC1`, the AUC in [1] was 336 ng·h/mL. Also, in data set [2], the concentration peaked (Cmax) at 104 ng/mL. The concentration at 4 h in data set [3] is 32 ng/g. Further, the Vd in data set [4] turned out to be 10 L/kg. The bioavailability in data set [5] was 5.6%. In the data set “physchem”, this compound yielded a logD of 2.6. Further, the Papp with Caco-2 is reported as 0.2 ×10⁻⁶ cm/s. Also, the time to peak (Tmax) in data set [6] turned out to be 120 min. Further, the Kp at 1 h in data set [7] is 0.1. In addition, the concentration at 1 h in data set [8] turned out to be 51 ng/g. In data set [9], the Kp at 4 h was 0.4.

With `CNCC(=O)N[C@H](c1cccc(F)c1N1CCN(C(=O)[C@H](C)Cc2ccc(Cl)cc2Cl)CC1)C(C)C`, in [1], the AUC came to 1010 ng·h/mL. Also, the Cmax in data set [2] was 172 ng/mL. Further, the concentration at 4 h in data set [3] was determined as 71 ng/g. In [4], this compound gave a Vd of 13 L/kg. The compound also yielded a bioavailability in data set [5] of 23%. In “physchem”, this compound showed a logD of 4.3. Besides, in the data set on Caco-2, the Papp is 2 ×10⁻⁶ cm/s. The Tmax in data set [6] is 120 min. Further, the partition ratio (Kp) at 1 h in data set [7] turned out to be 0.3. Besides, in data set [8], the concentration at 1 h was 85 ng/g. Moreover, the Kp at 4 h in [9] was 0.5.

Take `CNCC(=O)N[C@H](c1cc(Cl)ccc1N1CCN(C(=O)[C@H](C)Cc2ccc(Cl)cc2)CC1)C(C)C`: the AUC in data set [1] came to 232 ng·h/mL. The maximum concentration (Cmax) in data set [2] amounted to 88 ng/mL. The concentration at 4 h in data set [3] turned out to be 62 ng/g. In [4], this compound came in with a Vd of 16 L/kg. The same compound returned a bioavailability in data set [5] of 13%. Further, the logD in the data set “physchem” was 4.3. Further, the time to peak (Tmax) in data set [6] is 30 min. Moreover, the Kp at 1 h in data set [7] was 0.7. In data set [9], the Kp at 4 h was 1.5.
